Results from PMC6149949, “Synthesis and Evaluation of Thiochroman-4-One Derivatives as Potential Leishmanicidal Agents” (Molecules : A Journal of Synthetic Chemistry and Natural …, 2017).

Columns and labels:
[1] = tested on: intracellular amastigotes of Leishmania panamensis (MHOM/CO/87/UA140-EGFP strain); assay: In vitro antileishmanial activity on intracellular amastigotes (GFP, flow cytometry); format: cell-based; conditions: for SI (index of selectivity, IS = LC50/EC50): LC50 U-937 / EC50 L. panamensis amastigotes; for EC50: intracellular amastigotes of L. panamensis in U-937 cells, 72 h, mean ± SD
Protocol: Antileishmanial activity of compounds was determined according to the ability of the compound to reduce the infection by L. panamensis parasites. For this, the antileishmanial activity was tested on intracellular amastigotes of L. panamensis transfected with the green fluorescent protein gene (MHOM/CO/87/UA140-EGFP strain). Briefly, U-937 human cells at a density of 3 × 10^5 cells/mL in RPMI 1640 and 0.1 μg/mL of PMA (phorbol-12-myristate-13-acetate) were dispensed on 24-wells microplate and then infected with stationary phase growing L. panamensis promastigotes in 15:1 parasites per cell ratio. Plates were incubated at 34 °C and 5% CO2 for 3 h and then cells were washed twice with phosphate buffer solution (PBS) to eliminate not internalized parasites. Fresh RPMI-1640 was added into each well (1 mL) and plates were incubated again. After 24 h of infection, the RPMI-1640 medium was replaced by fresh culture medium containing each compound at four serial dilutions (50, 12.5, 3.125 and 0.78 μg/mL) and plates were then incubated at 37 °C and 5% CO2 during 72 h, then, cells were removed from the bottom plate with 100 μL of EDTA/Trypsin (250 mg) solution. The cells were centrifuged at 1100 rpm during 10 min at 4 °C, the supernatant was discarded and cells were washed with 1 mL of cold PBS and centrifuged at 1100 rpm for 10 min at 4 °C. Cells were washed two times employing PBS, as previously, and after the last wash, the supernatant was discarded and cells were suspended in 500 μL of PBS.
Cells were analyzed by flow cytometry employing a flow cytometer (cytomics FC 500MPL, Beckman Coulter. Pasadena, CA, USA) reading at 488 nm (exciting) and 525 nm (emitting) over an argon laser and counting 10,000 events. Infected cells were determined according the events for green fluorescence (parasites). All determinations for each compound and standard drug were carried out by triplicate, in two experiments. Infected cells exposed to control drug (amphotericin B) were used as control for antileishmanial activity (positive control) while infected cells incubated in absence of any compound or drug were used as control for infection (negative control). Nonspecific fluorescence was corrected by subtracting fluorescence of unstained cells. Determinations were done by triplicate in at least two independent experiments.
Antileishmanial activity was determined according reduction of percentage of fluorescent parasites determined according to the median fluorescence intensity (MFI), obtained for each experimental condition by cytometry. The parasite values for each concentration of compound were calculated by Equation (3), where the % of parasites in the control well, corresponds to 100% of parasites. % parasites = (MFI exposed parasites/MFI unexposed parasites) × 100(3)
Then, inhibition percentage was calculated with Equation (4):% inhibition of parasites = 100 − (% parasites)(4)
Results of antileishmanial activities were expressed as the median effective concentrations (EC50) measured by Probit method.

in vitro = conditions: human
Protocol: Cytotoxicity of the compounds was evaluated over human monocytes (U-937 ATCC CRL-1593.2) in exponential growing phase and, adjusted at 1 × 10^5 cells/mL in RPMI-1640 enriched with 10% fetal bovine serum (FBS). One hundred microliters of cell suspension were dispensed in each well of a 96-wells microplate and then, 100 μL of each compound or standard drug (amphotericin B) at four serial dilution concentrations (200, 50, 12.5 and 3.125 μg/mL) were added dissolved in pbs with 0.5% DMSO. Cell exposed to compounds or standard drugs were incubated 72 h at 37 °C and 5% of CO2. Cytotoxic activity of each compound was determined according to the effect on the cell viability by the MTT microenzymatic method in which 3-(4,5-dimethylthiazol-2-yl)- 2,5-diphenyltetrazolium bromide is reduced to a purple product named formazan by mitochondrial enzyme succinate dehydrogenase. Thus, 10 μL/well of MTT solution (5 mg/mL) were added to each well of exposed and unexposed cells, and plates were incubated at 37 °C, 5% CO2 during 3 h. The reaction was stopped by adding 100 μL/well of isopropanol with 50% and 10% of SDS (sodium dodecyl sulfate). The concentration of formazan was determined spectrophotometrically at 570 nm (Varioskan Flash Multimode Reader, Thermo Scientific, Waltham, MA, USA) and intensity of color (absorbance) was registered as O.D. Cells exposed to control drug (amphotericin B) were used as control for toxicity (positive control) while cell incubated in absence of any compound or drug were used as control for viability (negative control). Non-specific absorbance was corrected by subtracting absorbance (O.D) of the blank. Determinations were done by triplicate in at least two independent experiments.
Cytotoxicity was determined according to viability and mortality percentages obtained for each experimental condition (synthetized compounds, amphotericin B and culture medium). Results were expressed as the mean lethal concentrations (LC50), concentration necessary to kill 50% of cells, calculated by the parametric method of linear regression that permits doses-response analysis (Probit analysis).
Initially, viability percentages were calculated by Equation (1), where the O.D of control well, corresponds to 100% of viability. % viability = (O.D exposed cells/O.D unexposed cells) × 100(1)
Then, the percentage of cell growth inhibition was calculated using Equation (2):% inhibition = 100 − (% Viability)(2)
The toxicity was defined according to LC50 values, using the follow scale: Toxic; LC50 < 100 μM; moderately toxic; LC50 > 100 μM and <200 μM and potentially nontoxic; LC50 > 200 μM.

[2] = Leishmania panamensis, U-937, 72 h

| SMILES | SI (index of selectivity, IS = LC50/EC50) [1] | EC50 [1, 2] [µM] | EC50 [1] [µM] | CC50 at 72 h (in vitro) [µM] |
| --- | --- | --- | --- | --- |
| O=C1C=C(c2ccccc2)S(=O)(=O)c2ccccc21 [Compound 4h, 2-Phenyl-4H-thiochromen-4-one 1,1-dioxide] | >97.94 | < 10 | 7.56 ± 0.33 | > 740 |
| O=C1C=C(c2ccc(C(F)(F)F)cc2)S(=O)(=O)c2ccccc21 [Compound 4i, 2-(4-(Trifluoromethyl)-phenyl)-4H-thiochromen-4-one 1,1-dioxide] | >80.97 | < 10 | 7.3 ± 1.6 | > 591 |
| O=C1C=C(c2ccc(Cl)cc2)S(=O)(=O)c2ccccc21 [Compound 4k, 2-(4-Chlorophenyl)-4H-thiochromen-4-one 1,1-dioxide] | >87.70 | < 10 | 7.47 ± 0.75 | > 656 |
| O=C1C=C(c2ccc(F)cc2)S(=O)(=O)c2ccccc21 [Compound 4l, 2-(4-Fluorophenyl)-4H-thiochromen-4-one 1,1-dioxide] |  | < 10 | 6.72 ± 0.16 | > 694 |
| O=C1C=C(c2ccc([N+](=O)[O-])cc2)S(=O)(=O)c2ccccc21 [Compound 4m, 2-(4-Nitrophenyl)-4H-thiochromen-4-one 1,1-dioxide] | >87.70 | < 10 | 7.23 ± 0.44 | > 634 |
